Results: US20240269304A1, “BCL-XL INHIBITOR ANTIBODY-DRUG CONJUGATES AND METHODS OF USE THEREOF” (Novartis AG, priority 2020, published 2024)
Where two headings read alike, the source gives them in different places.

Assays:
ALL-SIL cells = test: CellTiterGlo (CTG) cell viability, 72 h, ALL-SIL (Example 8); assay type: cell-based
Protocol: ALL-SIL cells were cultivated in RPMI supplemented with 20% heat inactivated fetal bovine serum, penicillin (100 IU/ml), streptomycin (100 μg/ml) and L-glutamine (2 mM). Cell lines were cultured at 37° C. in a humidified atmosphere containing 5% CO2. Cells were seeded in 96 well clear bottom plates (96 well clear-bottom, white, Corning reference 3903) and exposed to the payloads or ADCs for 72 h (serially diluted; 9 concentrations each, triplicates). Effects of payloads or ADCs on cell viability were assessed after 3 days of incubation at 37° C./5% CO2 by quantification of cellular ATP levels using CellTiterGlo at 75 μL reagent/well. All the conditions were tested in triplicates. Luminescence was quantified on a multipurpose plate reader. IC50s were calculated using standard four-parametric curve fitting. […] Each experiment was performed at least twice, with results being reproducible.

DND-41 cells = test: CellTiterGlo (CTG) cell viability, 72 h, DND-41 (Example 8); assay type: cell-based
Protocol: DND-41 cells were cultivated in RPMI supplemented with 10% heat inactivated fetal bovine serum, penicillin (100 IU/ml), streptomycin (100 μg/ml) and L-glutamine (2 mM). Cell lines were cultured at 37° C. in a humidified atmosphere containing 5% CO2. […] Effects of payloads or ADCs on cell viability were assessed after 3 days of incubation at 37° C./5% CO2 by quantification of cellular ATP levels using CellTiterGlo at 75 μL reagent/well. All the conditions were tested in triplicates. Luminescence was quantified on a multipurpose plate reader. IC50s were calculated using standard four-parametric curve fitting.

H1650 cells = test: CellTiterGlo (CTG) cell viability, 3D, 120 h, H1650 (Example 8); assay type: cell-based, human; settings: Homo sapiens, NCI-H1650, H1650 3D
[1] = experiment n1, read-out: ALLSIL CTG 72 h IC50 nM n1
[2] = experiment n2, read-out: ALLSIL CTG 72 h IC50 nM n2
[3] = mean of n1 and n2, read-out: ALLSIL CTG 72 h IC50 nM Mean of n1 and n2
[4] = DND41, experiment n1, read-out: DND41 CTG 72 h IC50 nM n1
[5] = DND41, experiment n2, read-out: DND41 CTG 72 h IC50 nM n2
[6] = DND41, mean of n1 and n2, read-out: DND41 CTG 72 h IC50 nM Mean of n1 and n2
[7] = experiment n1, read-out: H1650 3D CTG IC50 n1
[8] = experiment n2, read-out: H1650 3D CTG IC50 n2
[9] = mean of n1 and n2, read-out: H1650 3D CTG IC50 Mean of n1 and n2

Row | SMILES | IC50 (H1650 cells; [7]) [nM] | IC50 (H1650 cells; [8]) [nM] | IC50 (H1650 cells; [9]) [nM] | IC50 (ALL-SIL cells; [1]) [nM] | IC50 (ALL-SIL cells; [2]) [nM] | IC50 (ALL-SIL cells; [3]) [nM] | IC50 (DND-41 cells; [4]) [nM] | IC50 (DND-41 cells; [5]) [nM] | IC50 (DND-41 cells; [6]) [nM] | ALLSIL CTG 72 h IC50 nM n1 (ALL-SIL cells; experiment n1)
1 | CNCC#Cc1ccc(OCCCc2sc(N(CCC(O)CO)c3cc(C)c(Nc4nc5ccccc5s4)nn3)nc2C(=O)O)c(F)c1 (stereo not drawn) [P44, 2-[[6-(1,3-Benzothiazol-2-ylamino)-5-methyl-pyridazin-3-yl]-(3,4-dihydroxybutyl)amino]-5-[3-[2-fluoro-4-[3-(methylamino)prop-1-ynyl]phenoxy]propyl]thiazole-4-carboxylic acid] | – | – | – | 4.64 | 3.14 | 3.89 | 36 | 33.6 | 34.8 | –
2 | CNCC#Cc1ccc(OCCCc2sc(N(CCCO)c3cc(C)c(Nc4nc5ccccc5s4)nn3)nc2C(=O)O)c(F)c1 [P45, 2-[[6-(1,3-Benzothiazol-2-ylamino)-5-methyl-pyridazin-3-yl]-(3-hydroxypropyl)amino]-5-[3-[2-fluoro-4-[3-(methylamino)prop-1-ynyl]phenoxy]propyl]thiazole-4-carboxylic acid] | – | – | – | 3.11 | 4.01 | 3.56 | 17 | 16.8 | 16.9 | –
3 | CNCC#Cc1ccc(OCCCc2sc(N(CCCC(O)CO)c3cc(C)c(Nc4nc5ccccc5s4)nn3)nc2C(=O)O)c(F)c1 (stereo not drawn) [P46, 2-[[6-(1,3-Benzothiazol-2-ylamino)-5-methyl-pyridazin-3-yl]-(4,5-dihydroxypentyl)amino]-5-[3-[2-fluoro-4-[3-(methylamino)prop-1-ynyl]phenoxy]propyl]thiazole-4-carboxylic acid] | – | – | – | 62.2 | 50 | 56.1 | 212 | 220 | 216 | –

Further lines, with some results ahead:

Row | IC50 (H1650 cells; [7]) [nM] | IC50 (H1650 cells; [8]) [nM] | IC50 (H1650 cells; [9]) [nM] | SMILES | IC50 (ALL-SIL cells; [1]) [nM] | IC50 (ALL-SIL cells; [2]) [nM] | IC50 (ALL-SIL cells; [3]) [nM] | IC50 (DND-41 cells; [4]) [nM] | IC50 (DND-41 cells; [5]) [nM] | IC50 (DND-41 cells; [6]) [nM] | ALLSIL CTG 72 h IC50 nM n1 (ALL-SIL cells; experiment n1)
4 | 0.51 | 1.28 | 0.9 | Cc1c(Nc2nc3ccccc3s2)nnc2c1CCCN2c1nc(C(=O)O)c(CCCOc2ccc(C#CCN(C)C)cc2F)s1 [P1, 2-[3-(1,3-Benzothiazol-2-ylamino)-4-methyl-6,7-dihydro-5H-pyrido[2,3-c]pyridazin-8-yl]-5-[3-[4-[3-(dimethylamino)prop-1-ynyl]-2-fluoro-phenoxy]propyl]thiazole-4-carboxylic acid] | 0.38 | 0.14 | 0.26 | 1.3 | 0.26 | 0.78 | –
5 | 0.7 | 1.8 | 1.25 | Cc1c(Nc2nc3ccccc3s2)nnc2c1CCCN2c1nc(C(=O)O)c(CCCOc2ccc(C#CC(C)N3CCN(C)CC3)cc2F)s1 (stereo not drawn) [P8, 2-[3-(1,3-Benzothiazol-2-ylamino)-4-methyl-6,7-dihydro-5H-pyrido[2,3-c]pyridazin-8-yl]-5-[3-[2-fluoro-4-[3-(4-methylpiperazin-1-yl)but-1-ynyl]phenoxy]propyl]thiazole-4-carboxylic acid] | 0.02 | 0.03 | 0.02 | 0.69 | 0.41 | 0.55 | –
6 | 0.7 | 1.4 | 1.05 | Cc1c(Nc2nc3ccccc3s2)nnc2c1CCCN2c1nc(C(=O)O)c(CCCOc2ccc(C#CCN3CCCC3)cc2F)s1 [P9, 2-[3-(1,3-Benzothiazol-2-ylamino)-4-methyl-6,7-dihydro-5H-pyrido[2,3-c]pyridazin-8-yl]-5-[3-[2-fluoro-4-(3-pyrrolidin-1-ylprop-1-ynyl)phenoxy]propyl]thiazole-4-carboxylic acid] | 3.31 | 1.1 | 2.21 | 21.8 | 19.3 | 20.6 | –
7 | 0.3 | 0.8 | 0.55 | Cc1c(Nc2nc3ccccc3s2)nnc2c1CCCN2c1nc(C(=O)O)c(CCCOc2ccc(C#CCN3CCN(C)CC3)cc2F)s1 [P10, 2-[3-(1,3-Benzothiazol-2-ylamino)-4-methyl-6,7-dihydro-5H-pyrido[2,3-c]pyridazin-8-yl]-5-[3-[2-fluoro-4-[3-(4-methylpiperazin-1-yl)prop-1-ynyl]phenoxy]propyl] thiazole-4-carboxylic acid] | – | 0.01 | 0.01 | 0.2 | 0.29 | 0.25 | <Cmin
